Experiment in all cases: isobutanol oxidation kinetics
Common to all, as to assay type: biochemical
Holding throughout (details): 30° C., pH 8.8, 7.5 mM NAD

In assay [1] the test system is Achromobacter xylosoxidans SadB (SadB), SEQ ID NO: 26. On the procedure: (§1) As a routine practice, the crude extracts and purified proteins were assayed for butanol oxidation activity, in order to ensure that the recombinant proteins were active throughout the purification process. […] Alcohol oxidation activities were carried out in 50 mM sodium phosphate buffer at pH 8.8 and aldehyde reduction reactions were assayed in 190 mM potassium phosphate buffer at pH 7.0. Depending on the nature of reaction being carried out, the enzyme and cofactor stocks were diluted in the reaction buffers at the respective pHs. Either buffer or cell extract prepared from the proprietary E. coli strain (with no ADH plasmid) was used as the negative control for assays with purified protein and cell-free extracts, respectively.
(§2) Kinetic constants of the ADH enzymes were calculated and compared to identify those candidate ADH enzymes with the most desirable properties for the conversion of isobutyraldehyde to isobutanol in the last step of the engineered pathway for isobutanol production. The assays for determining the kinetic constants were carried out using initial rates from the assays described above. […] The concentration of a given enzyme was such that it was conducive for the measurement of initial velocities over a 1-min time course. For each enzyme, Michaelis-Menten plots were generated with a broad range of substrate concentrations. Rough estimates of KM were obtained, based on which the assays were redesigned so as to use substrate concentrations in the range 0.5 to 10 times the KM value, to be able to obtain the appropriate kinetic constants. […] When calculating the KI for isobutanol, the same reactions were carried out in the presence of varying concentrations of isobutanol (generally 0-535 mM) in the reaction (see FIG. 7, for example). Reactions with isobutanol substrate were performed at 30° C. in 50 mM Sodium phosphate buffer, pH 8.8, containing 7.5 mM NAD. The Enzyme kinetics module (Version 1.3) of SigmaPlot 11 (Systat Software, Inc.) was used to fit data to Michaelis-Menten equations and calculate the kinetic constants. The kcat/KM is derived from the individual numbers of kcat and KM and not an experimentally determined value. The ratios of the KM, KI, and kcat/KM for each candidate enzyme as compared to the same parameter for SadB are given in Table 9.
(§3) For those enzymes marked with an asterisk in Table 7, at least 3 assays were performed with separate preparations of the enzyme. All other numbers are values from either one assay or are averages from 2 assays performed with the same enzyme sample.

The target of assay [2] is T1, Beijerinckia indica subsp. Indica ATCC 9039 ADH (BiADH), SEQ ID NO: 31 (Beijerinckia indica, UniProt B2IGW3).
T1 sequence (B2IGW3 1-347): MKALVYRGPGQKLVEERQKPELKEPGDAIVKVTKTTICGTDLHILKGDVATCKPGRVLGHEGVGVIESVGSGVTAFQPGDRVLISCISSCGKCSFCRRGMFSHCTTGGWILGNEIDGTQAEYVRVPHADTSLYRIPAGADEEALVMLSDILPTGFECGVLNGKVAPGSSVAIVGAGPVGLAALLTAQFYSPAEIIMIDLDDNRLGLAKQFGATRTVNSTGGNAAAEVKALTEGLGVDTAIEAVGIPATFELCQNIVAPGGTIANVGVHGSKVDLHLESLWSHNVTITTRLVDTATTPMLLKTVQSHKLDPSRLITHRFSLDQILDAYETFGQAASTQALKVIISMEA
On the procedure: as §1, §2, §3

Assay [3] deals with T2, horse liver ADH (HLADH), SEQ ID NO: 21 (Equus caballus, UniProt P00327).
T2 construct: purchased Sigma A-6128
On the procedure: as §1, §2, §3

T2 sequence (P00327 whole entry): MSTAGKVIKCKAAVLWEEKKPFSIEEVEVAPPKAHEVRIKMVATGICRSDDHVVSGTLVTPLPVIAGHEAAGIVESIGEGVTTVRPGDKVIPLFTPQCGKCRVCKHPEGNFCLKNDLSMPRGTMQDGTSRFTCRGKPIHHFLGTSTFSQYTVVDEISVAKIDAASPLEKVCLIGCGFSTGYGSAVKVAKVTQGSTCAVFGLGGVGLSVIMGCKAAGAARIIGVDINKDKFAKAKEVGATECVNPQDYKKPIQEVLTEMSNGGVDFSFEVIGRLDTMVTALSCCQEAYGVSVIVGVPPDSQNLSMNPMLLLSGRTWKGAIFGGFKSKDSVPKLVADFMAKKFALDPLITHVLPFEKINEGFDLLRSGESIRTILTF

In the case of `CC(C)CO` [isobutanol, 2-methylpropan-1-ol], the Km in assay [1] came out at 24 mM. For the same compound, the “kcat (isobutanol oxidation)” value in assay [1] was “[Isobutanol oxidation: kcat = 2 sec^−1;”; in assay [2] it was “[Isobutanol oxidation: kcat = 9 sec^−1;”; in assay [3], “[Isobutanol oxidation: kcat = 5 sec^−1;”.

Usually Km stands for the substrate concentration at which the rate is half of its maximum.

Values taken from patent publication US8765433B2, “Alcohol dehydrogenases (ADH) useful for fermentive production of lower alkyl alcohols” (priority 2009, dated 2014).
